Measured values as given in patent US10308615B2, “Heterocyclic compounds as inhibitors of Vanin-1 enzyme” (Pfizer Inc., priority 2015, dated 2019).

What was measured:
Assay type in all cases: biochemical
[1] = target: T1, human vanin-1 (Homo sapiens (Human), UniProt O95497); experiment: Human Vanin-1 Enzyme Assay 1; conditions: 25 pM human vanin-1, 50 uM pantetheine 7-amino-4-trifluoromethylcoumarin, 30 min preincubation, 60 min
How it was run: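 Purified His6/FLAG-tagged extracellular domain of human vanin-1, secreted from CHO cells, at 25 pM final in 50 mM Tris-HCl pH 8.0, 50 mM KCl, 0.005% Brij-35, 1.6 mM cysteamine, 0.5% DMSO. Inhibitor preincubated 30 min at room temperature; 50 uM pantetheine-AFC substrate, 60 min, fluorescence at 405/510 nm; 11-point four-fold dilution series.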

[2] = target: T1, human vanin-1; experiment: Human Vanin-1 Enzyme Assay 2; conditions: 1 nM human vanin-1, 10 uM substrate, 45 min
Procedure: Human Vanin-1 Enzyme Assay 2.
The in vitro assay measures enzymatic cleavage of the fluorescently-labeled vanin substrate, pantetheine 7-amino-4-trifluoromethylcoumarin, by human vanin-1.
The vanin-1 protein was prepared in-house from a construct expressing the extracellular domain of human vanin-1 (GenBank ID NM_004666) preceded N-terminally by the honey bee melittin signal peptide, a GSG linker sequence, a His6X tag and a FLAG tag. The secreted, soluble enzyme was purified from the conditioned medium from a CHO cell line stably expressing the resulting protein. Enzyme purification was performed through sequential Ni NTA and size-exclusion chromatography steps.
On the day of the assay, dose response plates were prepared by diluting the inhibitors in DMSO at compound concentration 100-fold the final in-assay concentration. Concentration series were prepared by serially diluting in DMSO in a half-log series for a total of 11 data points. Intermediate compound plates containing compound in 10% DMSO were then created by diluting the compounds 10-fold in assay buffer consisting of 50 mM Tris-HCl pH=8.0, 50 mM KCl, 0.005% Brij-35 and 1.5 mM cysteamine. To begin the assay 3 μL were transferred from the intermediate compound plate to the assay plate.
A working solution of human vanin-1 was prepared by diluting the enzyme stock to 1.25 nM in assay buffer. Next, 24 μL of the vanin-1 working solution were transferred to the assay plate. The enzyme reaction was then initiated by the addition of 3 μL of 100 μM pantetheine 7-amino-4-trifluoromethylcoumarin prepared in assay buffer. The final concentrations in the assay were 1 nM human vanin-1 and 10 uM substrate. The final concentration of DMSO was 1%. The assay plates were incubated for 45 minutes and before they were read on a Spectramax M5 using a 405 nm excitation wavelength and a 505 nm emission wavelength for detection.

[3] = target: T1, human vanin-1; experiment: Human Vanin-1 Enzyme Assay 3; conditions: 2 nM human vanin-1, 10 uM substrate, 15 min
How it was run: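 His/FLAG-tagged extracellular domain of human vanin-1 from CHO cells, used at 2 nM final, with 10 uM pantetheine-AFC substrate. Buffer: 50 mM Tris-HCl pH 8.0, 50 mM KCl, 0.005% Brij-35, 1.5 mM cysteamine, 1% DMSO. 15 min at room temperature; fluorescence read at 405/505 nm across an 11-point 2-fold dilution series.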

T1 sequence (O95497 22-491): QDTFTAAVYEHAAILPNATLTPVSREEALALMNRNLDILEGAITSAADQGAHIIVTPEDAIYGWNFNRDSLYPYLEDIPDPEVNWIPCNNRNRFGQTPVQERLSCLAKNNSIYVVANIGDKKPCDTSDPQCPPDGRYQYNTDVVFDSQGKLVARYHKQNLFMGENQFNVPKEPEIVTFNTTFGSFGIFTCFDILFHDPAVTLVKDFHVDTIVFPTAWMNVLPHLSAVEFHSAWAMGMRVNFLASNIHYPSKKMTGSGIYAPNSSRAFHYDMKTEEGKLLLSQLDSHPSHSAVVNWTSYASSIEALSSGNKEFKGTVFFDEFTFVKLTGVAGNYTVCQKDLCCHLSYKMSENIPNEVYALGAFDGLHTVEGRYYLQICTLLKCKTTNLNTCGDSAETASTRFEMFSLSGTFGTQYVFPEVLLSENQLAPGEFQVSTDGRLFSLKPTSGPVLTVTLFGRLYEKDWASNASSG

IC50 [1] | IC50 [2] | IC50 [3] | Compound
79.7 nM | 40.4 nM | 52.2 nM | N#Cc1cccc(C(=O)c2cnc(NCc3ccccc3)nc2)c1 [Example 27, 3-{[2-(benzylamino)pyrimidin-5-yl]carbonyl} benzonitrile]
38.2 nM | 21.8 nM | 8.4 nM | N#Cc1cccc(C(=O)c2cnc(NCc3ccc(Cl)cc3)nc2)c1 [Example 28, 3-({2-[(4-chlorobenzyl)amino]pyrimidin-5-yl}carbonyl) benzonitrile]
122 nM | 72.7 nM | 107 nM | COc1ccc(CNc2ncc(C(=O)c3cccc(C#N)c3)cn2)cc1 [Example 29, 3-({2-[(4-methoxybenzyl)amino]pyrimidin-5-yl}carbonyl) benzonitrile]
36.4 nM | 35.5 nM | 16.8 nM | N#Cc1cccc(C(=O)c2cnc(NCc3ccc(F)cc3F)nc2)c1 [Example 30, 3-({2-[(2,4-difluorobenzyl)amino]pyrimidin-5-yl}carbonyl) benzonitrile]
102 nM | 57.2 nM | 14 nM | N#Cc1cccc(C(=O)c2cnc(NCc3ccc(F)cc3)nc2)c1 [Example 31, 3-({2-[(4-fluorobenzyl)amino]pyrimidin-5-yl}carbonyl) benzonitrile]
95.3 nM | 71.3 nM | 14.3 nM | N#Cc1cccc(C(=O)c2cnc(NCc3ccccc3Cl)nc2)c1 [Example 32, 3-({2-[(2-chlorobenzyl)amino]pyrimidin-5-yl}carbonyl) benzonitrile]
7.3 nM | 55.9 nM | 206 nM | NC(=O)c1ccc(CNc2ncc(C(=O)c3cccc(C(F)(F)F)c3)cn2)cc1 [Example 33, 4-[({5-[3-(trifluoromethyl)benzoyl]pyrimidin-2-yl}amino)methyl] benzamide]
53.7 nM | 108 nM | 69.3 nM | O=C(c1ccccc1)c1cnc(NCc2cccnc2)nc1 [Example 34, phenyl{2-[(pyridin-3-ylmethyl)amino]pyrimidin-5-yl}methanone]
857 nM | 868 nM | 735 nM | Cc1cccc(C(=O)c2cnc(NCc3ccccn3)nc2)c1 [Example 38, (3-methylphenyl){2-[(pyridin-2-ylmethyl)amino]pyrimidin-5-yl}methanone]
1740 nM | 170 nM | 543 nM | Cc1cccc(C(=O)c2cnc(NCc3ccccc3)nc2)c1 [Example 40, [2-(benzylamino)pyrimidin-5-yl](3-methylphenyl) methanone]
794 nM | 188 nM | 144 nM | COc1cccc(C(=O)c2cnc(NCc3ccccc3)nc2)c1 [Example 45, [2-(benzylamino)pyrimidin-5-yl](3-methoxyphenyl) methanone]
218 nM | 357 nM | 398 nM | NC(=O)c1cccc(CNc2ncc(C(=O)c3cccc(Cl)c3)cn2)c1 [Example 48, 3-({[5-(3-chlorobenzoyl)pyrimidin-2-yl]amino}methyl) benzamide]
5690 nM | > 7620 nM | 112 nM | O=C(O)c1ccc(CNc2ncc(C(=O)c3ccc(F)c(F)c3)cn2)cc1 [Example 49, 4-({[5-(3,4-difluorobenzoyl)pyrimidin-2-yl]amino}methyl) benzoic acid]
2280 nM | 624 nM | 192 nM | COc1ccc(C(=O)c2cnc(NCc3ccc(C(N)=O)cc3)nc2)cc1 [Example 59, 4-({[5-(4-methoxybenzoyl)pyrimidin-2-yl]amino}methyl) benzamide]
18.8 nM | 22.1 nM | 12 nM | N#Cc1cccc(C(=O)c2cnc(NC3(c4ccccc4)CC3)nc2)c1 [Example 65, 3-({2-[(1-phenylcyclopropyl)amino]pyrimidin-5-yl}carbonyl) benzonitrile]
21.3 nM | 44.8 nM | 10.6 nM | O=C(c1cnc(NC2(c3ccccc3)CC2)nc1)c1cccc(C(F)(F)F)c1 [Example 66, {2-[(1-phenylcyclopropyl)amino]pyrimidin-5-yl}[3-(trifluoromethyl)phenyl]methanone]
107 nM | 73.1 nM | 78.8 nM | N#Cc1cccc(C(=O)c2cnc(NCc3ccc(C(N)=O)cc3)nc2)c1 [Example 68, 4-({[5-(3-cyanobenzoyl)pyrimidin-2-yl]amino}methyl) benzamide]
67.1 nM | 45.2 nM | 25.9 nM | NC(=O)c1ccc(CNc2ncc(C(=O)c3ccc(F)c(C(F)(F)F)c3)cn2)cc1 [Example 87, 4-[({5-[4-fluoro-3-(trifluoromethyl)benzoyl]pyrimidin-2-yl}amino)methyl] benzamide]
789 nM | 783 nM | 91.3 nM | O=C(c1cccc(C(F)(F)F)c1)c1ccc(NCc2cccnc2)nn1 [Example 91, {6-[(pyridin-3-ylmethyl)amino]pyridazin-3-yl}[3-(trifluoromethyl)phenyl]methanone]
91.9 nM | 242 nM | 166 nM | NC(=O)c1ccc(CNc2ncc(C(=O)c3cc(F)cc(C(F)(F)F)c3)cn2)cc1 [Example 95, 4-[({5-[3-fluoro-5-(trifluoromethyl)benzoyl]pyrimidin-2-yl}amino)methyl] benzamide]
102 nM | 149 nM | 55.5 nM | O=C(c1cnc(NCc2cccnc2)nc1)c1ccc2c(c1)OCCO2 [Example 98, 2,3-dihydro-1,4-benzodioxin-6-yl{2-[(pyridin-3-ylmethyl)amino]pyrimidin-5-yl}methanone]
162 nM | 122 nM | 145 nM | O=C(c1cnc(NCc2cccnc2)nc1)c1cccs1 [Example 100, {2-[(pyridin-3-ylmethyl)amino]pyrimidin-5-yl}(thiophen-2-yl)methanone]
858 nM | 549 nM | 722 nM | O=C(c1cnc(NCc2cccnc2)nc1)c1ccccc1Cl [Example 102, (2-chlorophenyl){2-[(pyridin-3-ylmethyl)amino]pyrimidin-5-yl}methanone]
196 nM | 116 nM | 200 nM | Cc1ccc2cc(C(=O)c3cnc(NCc4cccnc4)nc3)ccc2n1 [Example 104, (2-methylquinolin-6-yl){2-[(pyridin-3-ylmethyl)amino]pyrimidin-5-yl}methanone]
146 nM | 195 nM | 173 nM | N#Cc1cccc(C(=O)c2cnc(NCc3ccc(C(N)=O)nc3)nc2)c1 [Example 105, 5-({[5-(3-cyanobenzoyl)pyrimidin-2-yl]amino}methyl) pyridine-2-carboxamide]
387 nM | 990 nM | 423 nM | NC(=O)c1ccc(CNc2ncc(C(=O)c3ccccc3)cn2)cc1 [Example 106, 4-{[(5-benzoylpyrimidin-2-yl)amino]methyl} benzamide]
111 nM | 110 nM | 96.7 nM | N#Cc1cccc(C(=O)c2cnc(NCc3cccnn3)nc2)c1 [Example 108, 3-({2-[(pyridazin-3-ylmethyl)amino]pyrimidin-5-yl}carbonyl) benzonitrile]
422 nM | 238 nM | 63.5 nM | CC(C)(Nc1ncc(C(=O)c2ccccc2)cn1)c1ccccc1 [Example 110, phenyl{2-[(2-phenylpropan-2-yl)amino]pyrimidin-5-yl}methanone]
367 nM | 202 nM | 182 nM | O=C(c1ccccc1)c1cnc(NC2(c3ccccc3)CC2)nc1 [Example 111, phenyl{2-[(1-phenylcyclopropyl)amino]pyrimidin-5-yl}methanone]

Compound | IC50 [1] | IC50 [2] | IC50 [3]
Cc1ccc(CNc2ncc(C(=O)c3cccc(C(F)(F)F)c3)cn2)cn1 [Example 73, (2-{[(6-methylpyridin-3-yl)methyl]amino}pyrimidin-5-yl)[3-(trifluoromethyl)phenyl]methanone] | 1.7 nM | 10.6 nM | 1.2 nM
O=C(c1ccccc1)c1cnc(NCc2cncnc2)nc1 [Example 109, phenyl{2-[(pyrimidin-5-ylmethyl)amino]pyrimidin-5-yl}methanone] | 143 nM | 145 nM | 95.3 nM
